# Tested on: 677734-321-R-J1-PDC complex spheroid viability
# Experiment: Anticancer human tumor 677734-321-R-J1-PDC patient-derived soft tissue sarcoma cell line growth inhibition [POLQ]
# Conditions: for IC50: curve of first compound; for viability, T/C: stronger effect = lower value
# How it was run: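 Three-cell-type spheroids modelling solid tumor plus stroma served as the readout system; POL inhibitors were tested individually and in combination, concentration ranges set by clinical Cmax where known.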
# [1] = second compound 0.0316 µM, first compound 0.0316 µM
# [2] = second compound 0.0316 µM, first compound 0.1 µM
# [3] = second compound 0.0316 µM, first compound 0.316 µM
# [4] = second compound 0.0316 µM, first compound 1 µM
# [5] = second compound 0.0316 µM, first compound 3.16 µM
# [6] = second compound 0.0316 µM, first compound 10 µM
# [7] = second compound 0.1 µM, first compound 0.0316 µM
# [8] = second compound 0.1 µM, first compound 0.1 µM
# [9] = second compound 0.1 µM, first compound 0.316 µM
# [10] = second compound 0.1 µM, first compound 1 µM
# [11] = second compound 0.1 µM, first compound 3.16 µM
# [12] = second compound 0.1 µM, first compound 10 µM
# [13] = second compound 0.316 µM, first compound 0.0316 µM
# [14] = second compound 0.316 µM, first compound 0.1 µM
# [15] = second compound 0.316 µM, first compound 0.316 µM
# [16] = second compound 0.316 µM, first compound 1 µM
# [17] = second compound 0.316 µM, first compound 3.16 µM
# [18] = second compound 0.316 µM, first compound 10 µM
# [19] = second compound 1 µM, first compound 0.0316 µM
# [20] = second compound 1 µM, first compound 0.1 µM
# [21] = second compound 1 µM, first compound 0.316 µM
# [22] = second compound 1 µM, first compound 1 µM
# [23] = second compound 1 µM, first compound 3.16 µM
# [24] = second compound 1 µM, first compound 10 µM
# [25] = second compound 3.16 µM, first compound 0.0316 µM
# [26] = second compound 3.16 µM, first compound 0.1 µM
# [27] = second compound 3.16 µM, first compound 0.316 µM
# [28] = second compound 3.16 µM, first compound 1 µM
# [29] = second compound 3.16 µM, first compound 3.16 µM
# [30] = second compound 3.16 µM, first compound 10 µM
# [31] = second compound 10 µM, first compound 0.0316 µM
# [32] = second compound 10 µM, first compound 0.1 µM
# [33] = second compound 10 µM, first compound 0.316 µM
# [34] = second compound 10 µM, first compound 1 µM
# [35] = second compound 10 µM, first compound 3.16 µM
# [36] = second compound 10 µM, first compound 10 µM
# 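Further: spheroids exposed to compounds for one week.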
# 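Wherever viability, T/C is given: 100% = vehicle DMSO treated spheroids.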
smiles,measurement,setting,value
CC1COCCN1c1cc(C2(S(C)(=N)=O)CC2)nc(-c2ccnc3[nH]ccc23)n1 (stereo unspecified) + COC1C(OC(N)=O)C(O)C(Oc2ccc3c(O)c(NC(=O)c4ccc(O)c(CC=C(C)C)c4)c(=O)oc3c2C)OC1(C)C,IC50,second compound 0.0316 µM,5.96 µM
same,IC50,second compound 0.1 µM,4.24 µM
same,IC50,second compound 0.316 µM,3.12 µM
same,IC50,second compound 1 µM,4.67 µM
same,IC50,second compound 3.16 µM,3.85 µM
same,IC50,second compound 10 µM,3.85 µM
same,"viability, T/C",[1],109%
same,"viability, T/C",[2],117%
same,"viability, T/C",[3],95.5%
same,"viability, T/C",[4],101%
same,"viability, T/C",[5],62.4%
same,"viability, T/C",[6],39.5%
same,"viability, T/C",[7],110%
same,"viability, T/C",[8],113%
same,"viability, T/C",[9],106%
same,"viability, T/C",[10],93%
same,"viability, T/C",[11],58.7%
same,"viability, T/C",[12],24.3%
same,"viability, T/C",[13],109%
same,"viability, T/C",[14],104%
same,"viability, T/C",[15],104%
same,"viability, T/C",[16],91.1%
same,"viability, T/C",[17],49.5%
same,"viability, T/C",[18],18.5%
same,"viability, T/C",[19],112%
same,"viability, T/C",[20],98.7%
same,"viability, T/C",[21],100%
same,"viability, T/C",[22],92.2%
same,"viability, T/C",[23],62.3%
same,"viability, T/C",[24],24.3%
same,"viability, T/C",[25],109%
same,"viability, T/C",[26],104%
same,"viability, T/C",[27],99.6%
same,"viability, T/C",[28],98.8%
same,"viability, T/C",[29],55.5%
same,"viability, T/C",[30],22.9%
same,"viability, T/C",[31],108%
same,"viability, T/C",[32],107%
same,"viability, T/C",[33],106%
same,"viability, T/C",[34],92%
same,"viability, T/C",[35],56%
same,"viability, T/C",[36],21.6%
CCc1c2c(nc3ccc(O)cc13)-c1cc3c(c(=O)n1C2)COC(=O)[C@]3(O)CC + COC1C(OC(N)=O)C(O)C(Oc2ccc3c(O)c(NC(=O)c4ccc(O)c(CC=C(C)C)c4)c(=O)oc3c2C)OC1(C)C,IC50,second compound 0.0316 µM,< 0.00316 µM
same,IC50,second compound 0.1 µM,< 0.00316 µM
same,IC50,second compound 0.316 µM,< 0.00316 µM
same,IC50,second compound 1 µM,< 0.00316 µM
same,IC50,second compound 3.16 µM,< 0.00316 µM
same,IC50,second compound 10 µM,< 0.00316 µM
same,"viability, T/C","second compound 0.0316 µM, first compound 0.00316 µM",28.4%
same,"viability, T/C","second compound 0.0316 µM, first compound 0.01 µM",11.8%
same,"viability, T/C",[1],4.37%
same,"viability, T/C",[2],3.1%
same,"viability, T/C",[3],2.06%
same,"viability, T/C",[4],1.39%
same,"viability, T/C","second compound 0.1 µM, first compound 0.00316 µM",30%
same,"viability, T/C","second compound 0.1 µM, first compound 0.01 µM",13.9%
same,"viability, T/C",[7],5.1%
same,"viability, T/C",[8],2.75%
same,"viability, T/C",[9],2%
same,"viability, T/C",[10],1.2%
same,"viability, T/C","second compound 0.316 µM, first compound 0.00316 µM",28.4%
same,"viability, T/C","second compound 0.316 µM, first compound 0.01 µM",12%
same,"viability, T/C",[13],4.66%
same,"viability, T/C",[14],2.52%
same,"viability, T/C",[15],6.96%
same,"viability, T/C",[16],2.86%
same,"viability, T/C","second compound 1 µM, first compound 0.00316 µM",30.1%
same,"viability, T/C","second compound 1 µM, first compound 0.01 µM",13.1%
same,"viability, T/C",[19],4.67%
same,"viability, T/C",[20],2.88%
same,"viability, T/C",[21],2.98%
same,"viability, T/C",[22],1.68%
same,"viability, T/C","second compound 3.16 µM, first compound 0.00316 µM",24.4%
same,"viability, T/C","second compound 3.16 µM, first compound 0.01 µM",14.4%
same,"viability, T/C",[25],6.11%
same,"viability, T/C",[26],3.15%
same,"viability, T/C",[27],2.62%
same,"viability, T/C",[28],1.16%
same,"viability, T/C","second compound 10 µM, first compound 0.00316 µM",32%
same,"viability, T/C","second compound 10 µM, first compound 0.01 µM",12.5%
same,"viability, T/C",[31],4.86%
same,"viability, T/C",[32],3.88%
same,"viability, T/C",[33],2.05%
same,"viability, T/C",[34],1.75%
CNCc1ccc(-c2[nH]c3cc(F)cc4c3c2CCNC4=O)cc1 + COC1C(OC(N)=O)C(O)C(Oc2ccc3c(O)c(NC(=O)c4ccc(O)c(CC=C(C)C)c4)c(=O)oc3c2C)OC1(C)C,IC50,second compound 0.0316 µM,> 10 µM
same,IC50,second compound 0.1 µM,> 10 µM
same,IC50,second compound 0.316 µM,> 10 µM
same,IC50,second compound 1 µM,> 10 µM
same,IC50,second compound 3.16 µM,> 10 µM
same,IC50,second compound 10 µM,> 10 µM
same,"viability, T/C",[1],101%
same,"viability, T/C",[2],103%
same,"viability, T/C",[3],96.6%
same,"viability, T/C",[4],107%
same,"viability, T/C",[5],111%
same,"viability, T/C",[6],103%
same,"viability, T/C",[7],103%
same,"viability, T/C",[8],101%
same,"viability, T/C",[9],101%
same,"viability, T/C",[10],109%
same,"viability, T/C",[11],104%
same,"viability, T/C",[12],96.5%
same,"viability, T/C",[13],107%
same,"viability, T/C",[14],102%
same,"viability, T/C",[15],106%
same,"viability, T/C",[16],106%
same,"viability, T/C",[17],104%
same,"viability, T/C",[18],103%
same,"viability, T/C",[19],114%
same,"viability, T/C",[20],99.8%
same,"viability, T/C",[21],101%
same,"viability, T/C",[22],107%
same,"viability, T/C",[23],106%
same,"viability, T/C",[24],104%
same,"viability, T/C",[25],102%
same,"viability, T/C",[26],106%
same,"viability, T/C",[27],100%
same,"viability, T/C",[28],110%
same,"viability, T/C",[29],108%
same,"viability, T/C",[30],101%
same,"viability, T/C",[31],106%
same,"viability, T/C",[32],102%
same,"viability, T/C",[33],106%
same,"viability, T/C",[34],108%
same,"viability, T/C",[35],105%
same,"viability, T/C",[36],101%
